In brackets after ≈: the same amount, converted by molar mass. Blank lines part the entries; values can stand above or below the molecule they belong to.
Key:
Assay in all cases: ≥ marks a high value that may be exact or a test limit, other limits are often not marked, values filed in µg/mL are converted to µM
[1] = tested on: Klebsiella pneumoniae WGLW2
[2] = tested on: Candida albicans ATCC 10231
[3] = tested on: Staphylococcus aureus ATCC 29231
[4] = tested on: Acinetobacter baumannii ATCC 7978
[5] = tested on: Klebsiella aerogenes ATCC 13048
[6] = tested on: Pseudomonas aeruginosa PAO1
[7] = tested on: Staphylococcus aureus USA 300
[8] = tested on: Streptococcus pyogenes M1T1 5448
Escherichia coli BL21 = tested on: Escherichia coli BL21
[9] = tested on: Escherichia coli ATCC 25922
[10] = tested on: Staphylococcus aureus ATCC 33591
[11] = tested on: Pseudomonas aeruginosa ATCC 27853
[12] = tested on: Enterococcus faecium ATCC 700221
[13] = tested on: Listeria monocytogenes EGD
[14] = tested on: Staphylococcus aureus ATCC 25923

Structure (SMILES): CC[C@H](C)[C@H](NC(=O)[C@H](CCCCN)NC(=O)[C@H](CCCCN)NC(=O)[C@@H](N)CC(C)C)C(=O)NCC(=O)N[C@@H](CCCCN)C(=O)N[C@@H](CCCCN)C(=O)N[C@H](C(=O)N[C@@H](Cc1c[nH]c2ccccc12)C(=O)N[C@@H](CCCN=C(N)N)C(=O)N[C@H](C(=O)NCC(=O)N[C@@H](Cc1c[nH]c2ccccc12)C(=O)N[C@@H](CC(N)=O)C(=O)N[C@@H](Cc1c[nH]c2ccccc12)C(=O)N[C@@H](CCCN=C(N)N)C(=O)O)C(C)C)[C@@H](C)CC [LKKIGKKIWRVGWNWR]
- MIC [1]: ≥ 32.3 µM
- MIC [2]: 61.9 µM (≈ 128 µg/mL)
- MIC [3]: ≥ 61.9 µM
- MIC [4]: 16.1 µM (≈ 33.4 µg/mL)
- MIC [5]: ≥ 61.9 µM

- MIC [6]: 64 µM (≈ 189 µg/mL)
- MIC [7]: 4 µM (≈ 11.8 µg/mL)
- MIC [8]: ≥ 128 µM
- MIC (Escherichia coli BL21): 16 µM (≈ 47.3 µg/mL)
Structure (SMILES): CC[C@H](C)[C@H](NC(=O)[C@H](CCCCN)NC(=O)[C@H](CCCCN)NC(=O)CNC(=O)[C@H](CCC(=O)O)NC(=O)[C@H](CCC(N)=O)NC(=O)[C@@H](NC(=O)[C@@H](NC(=O)[C@H](CCCCN)NC(=O)[C@H](CCCCN)NC(=O)[C@H](CC(C)C)NC(=O)[C@H](CCCN=C(N)N)NC(=O)[C@H](CCC(N)=O)NC(=O)[C@H](Cc1ccccc1)NC(=O)[C@@H](NC(=O)[C@H](CCCCN)NC(=O)[C@H](CCC(=O)O)NC(=O)[C@H](CCCCN)NC(=O)CNC(=O)[C@H](C)N)[C@@H](C)CC)[C@@H](C)O)[C@@H](C)CC)C(=O)N[C@@H](C)C(=O)N[C@@H](CCCCN)C(=O)N[C@@H](CCCN=C(N)N)C(=O)N[C@@H](C)C(=O)N[C@@H](Cc1c[nH]c2ccccc12)C(=O)O [AGKEKIFQRLKKTIQEGKKIAKRAW]

- MIC [9]: 6.3 µM (≈ 10.9 µg/mL)
- MIC [10]: 12.5 µM (≈ 21.6 µg/mL)
- MIC [11]: 50 µM (≈ 86.4 µg/mL)
- MIC [12]: 6.3 µM (≈ 10.9 µg/mL)
Structure (SMILES): CC[C@H](C)[C@H](NC(=O)[C@H](CCCCN)NC(=O)[C@H](CCCCN)NC(=O)[C@H](CC(C)C)NC(=O)[C@@H](NC(=O)[C@H](CCCCN)NC(=O)[C@H](CCCCN)NC(=O)[C@@H](NC(=O)[C@@H](NC(=O)[C@H](CC(=O)O)NC(=O)[C@H](Cc1ccccc1)NC(=O)[C@H](CC(C)C)NC(=O)CN)C(C)C)[C@@H](C)CC)C(C)C)C(=O)NCC(=O)NCC(=O)N[C@@H](CC(C)C)C(N)=O [GLFDVIKKVLKKIGGL]

- MIC [9]: 64 µM (≈ 150 µg/mL)
- MIC [13]: ≥ 32 µM
- MIC [14]: 64 µM (≈ 150 µg/mL)
- MIC [11]: 32 µM (≈ 75.2 µg/mL)
Structure (SMILES): CC(C)C[C@H](NC(=O)[C@H](CC(C)C)NC(=O)[C@H](CCCCN)NC(=O)[C@@H](NC(=O)[C@@H](NC(=O)[C@H](CO)NC(=O)[C@H](CCCCN)NC(=O)[C@H](Cc1ccccc1)NC(=O)[C@@H](NC(=O)[C@@H](N)CCCCN)C(C)C)C(C)C)C(C)C)C(=O)N[C@@H](CCC(=O)O)C(=O)N[C@@H](CCCCN)C(=O)N[C@H](C(=O)N[C@H](C(=O)N[C@@H](CC(C)C)C(=O)N[C@@H](CCCCN)C(=O)N[C@@H](CCCCN)C(=O)N[C@@H](Cc1ccccc1)C(=O)N[C@@H](CO)C(=O)N[C@@H](CCCCN)C(N)=O)C(C)C)[C@@H](C)O [KVFKSVVKLLEKTVLKKFSK]

— DBAASP
